From ChEMBL document CHEMBL3525909, “Metabolism of LY654322, a growth hormone secretagogue, to an unusual diimidazopyridine metabolite” (Drug Metab Dispos, 2011)

Tests used:
[1] = Drug level in Fischer 344 rat urine treated with 2-Methylalanyl-N-{1-[(1R)-1-(4-fluorophenyl)-1-methyl-2-oxo-2-pyrrolidin-1-ylethyl]-1H-imidazol-4-yl}-5-phenyl-D-norvalinamide at 3 mg/kg, iv and 30 mg/kg, po by LC-UV spectrophotometry; format: ADME, organism-based; conditions: in vivo
[2] = Drug level in Fischer 344 rat urine treated with 2-Methylalanyl-N-{1-[(1R)-1-(4-fluorophenyl)-1-methyl-2-oxo-2-pyrrolidin-1-ylethyl]-1H-imidazol-4-yl}-5-phenyl-D-norvalinamide at 3 mg/kg, iv and 30 mg/kg, po by LC-MS analysis; format: ADME, organism-based; conditions: in vivo
[3] = Drug level in beagle dog urine treated with 2-Methylalanyl-N-{1-[(1R)-1-(4-fluorophenyl)-1-methyl-2-oxo-2-pyrrolidin-1-ylethyl]-1H-imidazol-4-yl}-5-phenyl-D-norvalinamide at 20 mg/kg, po by LC-MS analysis; format: ADME, organism-based, Canis lupus familiaris; design: dose 20 mg/kg, route oral; conditions: in vivo
Plasma [4] = test: Drug level in Fischer 344 rat plasma treated with 2-Methylalanyl-N-{1-[(1R)-1-(4-fluorophenyl)-1-methyl-2-oxo-2-pyrrolidin-1-ylethyl]-1H-imidazol-4-yl}-5-phenyl-D-norvalinamide at 3 mg/kg, iv by LC-MS/MS analysis; format: ADME, organism-based; design: dose 3 mg/kg, route intravenous; conditions: in vivo
[5] = Terminal half life in Fischer 344 rat at 3 mg/kg, iv; format: ADME, organism-based; design: dose 3 mg/kg, route intravenous; conditions: in vivo, read-out: beta t1/2 (converted)
[6] = Plasma clearance in Fischer 344 rat at 3 mg/kg, iv; format: ADME, organism-based; design: dose 3 mg/kg, route intravenous
[7] = Drug excretion in Fischer 344 rat urine assessed as (2R,2'R)-2,2'-(diimidazo[4,5-b:4',5'-e]pyridine-1,7-diyl)bis(2-(4-fluorophenyl)-1-(pyrrolidin-1-yl)propan-1-one) formation at 3 mg/kg, iv and 30 mg/kg, po by LC-UV spectrophotometry; format: ADME, organism-based; conditions: in vivo
[8] = Oral bioavailability in Fischer 344 rat at 30 mg/kg; format: ADME, organism-based; conditions: in vivo
[9] = Plasma clearance in beagle dog at 1 mg/kg, iv; format: ADME, organism-based, Canis lupus familiaris; design: dose 1 mg/kg, route intravenous
[10] = Terminal half life in beagle dog at 1 mg/kg, iv; format: ADME, organism-based, Canis lupus familiaris; design: dose 1 mg/kg, route intravenous; conditions: in vivo, read-out: beta t1/2 (converted)
[11] = Oral bioavailability in beagle dog at 3 mg/kg; format: ADME, organism-based, Canis lupus familiaris; conditions: in vivo
[12] = Drug excretion in Fischer 344 rat urine assessed as (2R,2'R)-2,2'-(diimidazo[4,5-b:4',5'-e]pyridine-1,7-diyl)bis(2-(4-fluorophenyl)-1-(pyrrolidin-1-yl)propan-1-one) formation at 3 mg/kg, iv and 30 mg/kg, po by LC-MS analysis; format: ADME, organism-based; conditions: in vivo
[13] = Drug excretion in beagle dog urine assessed as (2R,2'R)-2,2'-(diimidazo[4,5-b:4',5'-e]pyridine-1,7-diyl)bis(2-(4-fluorophenyl)-1-(pyrrolidin-1-yl)propan-1-one) formation at 20 mg/kg, po by LC-MS analysis; format: ADME, organism-based, Canis lupus familiaris; design: dose 20 mg/kg, route oral; conditions: in vivo
[14] = Drug metabolism in human hepatocytes assessed as (2R,2'R)-2,2'-(diimidazo[4,5-b:4',5'-e]pyridine-1,7-diyl)bis(2-(4-fluorophenyl)-1-(pyrrolidin-1-yl)propan-1-one) formation at 50 uM after 4 hrs; format: ADME, cell-based, Hepatocyte
Liver [15] = test: Drug metabolism in rat liver slices assessed as (2R,2'R)-2,2'-(diimidazo[4,5-b:4',5'-e]pyridine-1,7-diyl)bis(2-(4-fluorophenyl)-1-(pyrrolidin-1-yl)propan-1-one) formation at 50 uM after 24 hrs; format: ADME, tissue-based
Liver [16] = test: Drug metabolism in dog liver slices assessed as (2R,2'R)-2,2'-(diimidazo[4,5-b:4',5'-e]pyridine-1,7-diyl)bis(2-(4-fluorophenyl)-1-(pyrrolidin-1-yl)propan-1-one) formation at 50 uM after 24 hrs; format: ADME, tissue-based, Canis lupus familiaris
Plasma [17] = test: Drug metabolism in Fischer 344 rat plasma assessed as (R)-2-(4-amino-1H-imidazol-1-yl)-2-(4-fluorophenyl)-1-(pyrrolidin-1-yl)propan-1-one formation at 3 mg/kg, iv by LC-MS analysis; format: ADME, organism-based; design: dose 3 mg/kg, route intravenous; conditions: in vivo
Plasma [18] = test: Drug metabolism in beagle dog plasma assessed as (R)-2-(4-amino-1H-imidazol-1-yl)-2-(4-fluorophenyl)-1-(pyrrolidin-1-yl)propan-1-one formation at 1 mg/kg, iv by LC-MS analysis; format: ADME, organism-based, Canis lupus familiaris; design: dose 1 mg/kg, route intravenous; conditions: in vivo
[19] = Drug excretion in Fischer 344 rat urine assessed as (R)-2-(4-amino-1H-imidazol-1-yl)-2-(4-fluorophenyl)-1-(pyrrolidin-1-yl)propan-1-one formation at 3 mg/kg, iv and 30 mg/kg, po by LC-MS analysis; format: ADME, organism-based; conditions: in vivo
[20] = Drug excretion in beagle dog urine assessed as (R)-2-(4-amino-1H-imidazol-1-yl)-2-(4-fluorophenyl)-1-(pyrrolidin-1-yl)propan-1-one formation at 20 mg/kg, po by LC-MS analysis; format: ADME, organism-based, Canis lupus familiaris; design: dose 20 mg/kg, route oral; conditions: in vivo
Plasma [21] = test: Drug metabolism in Fischer 344 rat plasma assessed as (R)-2-(2-amino-2-methylpropanamido)-5-phenylpentanoic acid formation at 3 mg/kg, iv by LC-MS analysis; format: ADME, organism-based; design: dose 3 mg/kg, route intravenous; conditions: in vivo
Plasma [22] = test: Drug level in beagle dog plasma treated with 2-Methylalanyl-N-{1-[(1R)-1-(4-fluorophenyl)-1-methyl-2-oxo-2-pyrrolidin-1-ylethyl]-1H-imidazol-4-yl}-5-phenyl-D-norvalinamide at 1 mg/kg, iv by LC-MS/MS analysis; format: ADME, organism-based, Canis lupus familiaris; design: dose 1 mg/kg, route intravenous; conditions: in vivo

C[C@](C(=O)N1CCCC1)(c1ccc(F)cc1)n1cnc2nc3ncn([C@@](C)(C(=O)N4CCCC4)c4ccc(F)cc4)c3cc21
Drug excretion [1]: metabolite_detected | Drug excretion [2]: metabolite_detected | Drug excretion [3]: metabolite_detected

CC(C)(N)C(=O)N[C@H](CCCc1ccccc1)C(=O)O
Drug metabolism (Plasma [4]): metabolite_detected

CC(C)(N)C(=O)N[C@H](CCCc1ccccc1)C(=O)Nc1cn([C@@](C)(C(=O)N2CCCC2)c2ccc(F)cc2)cn1
half-life [5]: 2 h | clearance [6]: 4.5 L/h/kg | Drug excretion [7]: metabolite_detected | bioavailability [8]: 74% | clearance [9]: 1.98 L/h/kg | half-life [10]: 5 h | bioavailability [11]: 33% | Drug excretion [12]: metabolite_detected | Drug excretion [13]: metabolite_detected | Drug metabolism [14]: metabolite_not_detected | Drug metabolism (Liver [15]): metabolite_not_detected | Drug metabolism (Liver [16]): metabolite_not_detected | Drug metabolism (Plasma [17]): metabolite_detected | Drug metabolism (Plasma [18]): metabolite_detected | Drug excretion [19]: metabolite_detected | Drug excretion [20]: metabolite_detected | Drug metabolism (Plasma [21]): metabolite_detected

C[C@](C(=O)N1CCCC1)(c1ccc(F)cc1)n1cnc(N)c1
Drug metabolism (Plasma [4]): metabolite_detected | Drug excretion [2]: metabolite_detected | Drug excretion [3]: metabolite_detected | Drug metabolism (Plasma [22]): metabolite_detected
